According to patent US20240336617A1, “Substituted Bimane Compounds and Methods of Use Thereof” (THE TRUSTEES OF THE UNIVERSITY OF PENNSYLVANIA, priority 2023, published 2024):

Experiments:
[1] = Molar absorptivity determination; format: physicochemical; conditions: for E, molar absorptivity (ε): absence of αS PFFs (−), measured at λabs;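 as to all read-outs here: molar absorptivity derived from UV-Vis absorbance spectra recorded for each derivative on a spectrometer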
Procedure: The absorbance spectrum of each derivative (150 μL) was measured on a Thermo Scientific Genesys 150 UV-Vis spectrometer, using 50:50 ACN/PBS as a blank.
Molar absorptivity determination. […] The absorbance spectrum of each derivative (150 μL) was measured on a Thermo Scientific Genesys 150 UV-Vis spectrometer, using 50:50 ACN/PBS as a blank.

[2] = tested on: αS fibrils versus Aβ1-42 fibrils; test: Amyloid selectivity by plate reader, αS versus Aβ1-42 fibrils; format: binding; parameters: fluorescence turn-on with αS relative to Aβ1-42: dose or concentration left out as unconfirmed; conditions: for fluorescence turn on with αS relative to Aβ1-42: 5 μM fibril concentrations, probe 1 μM
Procedure: (§1) Experiments were performed on the Tecan Spark in Greiner 96 well flat black ½ area plates using the following parameters: excitation and emission band widths 5 nm, lag time 0 μs, integration time 40 μs. A 10 mM DMSO stock solution of probes (7j-7m) and 100 μM stock of αS fibrils were used in the study described herein.

αS fibrils [3] = target: T1, αS fibrils (Homo sapiens, UniProt P37840); test: Fluorescence spectra with αS fibrils; format: binding; conditions: for Stokes shift: difference between λex and λem; for λem: PFF 50 μM; for turn on of fluorescence in the presence of αS PFFs: in vitro generated αS PFFs; for λem, maximum emission wavelength: bound dye; for Stokes shift in the presence of PFFs / emission peaks / emission maxima in the presence of PFFs: αS PFFs
T1 construct: intein-His6 (C, cleaved yes); made in house; host or cells: Escherichia coli BL21
Procedure: Fluorescence measurements were performed using a PTI QuantaMaster™ 40 fluorescence spectrometer. Fluorescence spectra of 10 μM probes (concentrated stock solution prepared as 10 mM in DMSO) (7b, 7c, 7d, 7e, 7f, 7g and 7h) in PBS buffer were measured by excitation at their absorbance maximum wavelength in the absence and presence of 50 μM αS fibrils (stock solution 100 μM αS fibrils in PBS buffer).
Fluorescence spectra with αS fibrils. Fluorescence measurements were performed using a PTI QuantaMaster 40 fluorescence spectrometer. Fluorescence spectra of 10 μM probes (concentrated stock solution prepared as 10 mM in DMSO) (5b-5f and 5h) in PBS buffer were measured by excitation at their absorbance maximum wavelength in the absence and presence of 50 μM αS fibrils (stock solution 100 μM αS fibrils in PBS buffer). […] FIGS. 77A-77F show fluorescence spectra of probes (5b-5f and 5h) with and without αS fibrils. Final concentrations of probes and αS fibrils were 10 μM and 50 μM, respectively. Emission spectra collected at each dye's maximum absorption wavelength. Ex/Em slit widths: 3 nm/3 nm. […] Absorbance is shown in FIG. 78A and FIG. 78B, whereas FIG. 78C and FIG. 78D show excitation spectra of probes 5j and 5k with and without αS fibrils. Final probe and fibrils concentrations were 10 μM and 50 μM, respectively. […] Emission wavelengths were 575 nm for 5j, 580 nm for 5k. Ex/Em slit widths: 3 nm/3 nm. […] Black line indicates incident light (αS fibrils without probe) and blue line indicates sample (αS fibrils with probe). Excitation at λexc=435 nm for 5j and λexc=463 nm for 5k and spectral collection (400-800 nm). Final concentrations of the probe and αS fibrils are the 100 μM. Ex/Em slit widths: 5 nm/5 nm.

[4] = Solvatochromic measurements; format: physicochemical; conditions: organic solvents of different polarity
Procedure: The remaining 850 μL solution was used to obtain fluorescence images under a handheld 365 nm UV lamp.
Solvatochromic measurements. […] The remaining 850 μL solution was used to obtain fluorescence images under a handheld 365 nm UV lamp.

αS fibrils [5] = target: T1, αS fibrils; test: Fluorescent QY measurements with αS fibrils; format: physicochemical; conditions: for Relative Brightness: ratio of ε•QY in the presence and absence of PFFs; for increase in QY with αS fibrils: presence versus absence of αS fibrils; for increase in brightness in the presence of PFFs: αS PFFs
Procedure: (§2) For each QY measurement, the incident excitation light spectrum was collected with 100 μL of probes (100 μM) in PBS buffer. After measuring the incident light intensity, probes (7j-7m) were added to the αS fibrils (100 μM) from a concentrated stock solution (10 mM in DMSO) to a final concentration of 100 μM and the new spectrum (fluorescence intensity and new incident light intensity) was collected. Using the JASCO Quantum Yield Software, the dye QY was calculated by dividing the dye fluorescence intensity by the difference in incident light intensity in the presence and absence of fibrils.
as §2, with “[…]” for “μL”, “(5j and 5k)” for “(7j-7m)”

αS fibrils [6] = target: T1, αS fibrils; test: Excitation spectra with αS fibrils; format: physicochemical; conditions: dye 10 μM; for λex: presence of αS PFFs, PFF 50 μM; for λex, maximum excitation wavelength: presence of αS PFFs (+), PFFs 50 μM, represents the bound form of dye
Procedure: Excitation spectral measurements were performed using a PTI QuantaMaster™ 40 fluorescence spectrometer. Excitation spectra of 10 μM probes (concentrated stock solution prepared as 10 mM in DMSO) (7j, 7k, 7l, and 7m) in PBS buffer were measured in the absence and presence of 50 μM αS fibrils (stock solution 100 μM αS fibrils in PBS buffer).
Excitation spectra with αS fibrils. Excitation spectral measurements were performed using a PTI QuantaMaster 40 fluorescence spectrometer. Excitation spectra of 10 μM probes (concentrated stock solution prepared as 10 mM in DMSO) (5j and 5k) in PBS buffer were measured in the absence and presence of 50 μM αS fibrils (stock solution 100 μM αS fibrils in PBS buffer).

[7] = tested on: αS fibrils versus tau fibrils; test: Amyloid selectivity by plate reader, αS versus tau fibrils; format: binding; parameters: fluorescence turn-on with αS relative to tau: dose or concentration left out as unconfirmed; conditions: for fluorescence turn on with αS relative to tau: 5 μM fibril concentrations, probe 1 μM
Procedure: as §1

[8] = Absorbance measurements (UV-Vis); conditions: for Absorbance Wavelength: ACN:PBS buffer (50:50 v/v); for λabs, maximum absorption wavelength: absence of αS PFFs (−), dye 10 μM; for λabs: ACN/PBS
Procedure: Samples were individually diluted to the final concentration of 25 μM (500 μL) using 50:50 acetonitrile in phosphate buffered saline (ACN/PBS). The absorbance spectrum of each derivative (150 μL) was measured on a Thermo Scientific Genesys 150 UV-Vis spectrometer, using 50:50 ACN/PBS as a blank.

[9] = ACN/PBS buffer (1:1 v/v), pH 7.4
[10] = in ACN, at maximum absorption wavelength
[11] = presence of αS PFFs, 100 μM dye and PFFs
[12] = 25 μM in ACN/PBS buffer (1:1 v/v), pH 7.4
[13] = presence of αS PFFs (+), dye 10 μM, PFFs 50 μM
[14] = presence of αS PFFs (+), 100 μM dye and PFFs
[15] = λex/λem = 435/575 nm for 5j and 463/580 nm for 5k

SMILES | Molar Absorptivity (ε) [1, 9] | Molar Absorptivity (ε) [1, 10] | fluorescence turn on with αS relative to Aβ1-42 [2] | Stokes shift (αS fibrils [3]; presence of αS PFFs) | λem (αS fibrils [3]; presence of αS PFFs, dye 10 μM) | emission span across solvents (solvatochromism) [4] | Fluorescence QY (αS fibrils [5]; absence of αS PFFs, 100 μM dye) | Fluorescence QY (αS fibrils [5]; [11]) | Relative Brightness (αS fibrils [5]) | λex (αS fibrils [6]) | fluorescence turn on with αS relative to tau [7] | Absorbance λmax ([8]; 25 μM in ACN) | Absorbance λmax [8, 12] | E, molar absorptivity (ε) [1] | turn on of fluorescence in the presence of αS PFFs (αS fibrils [3]) | Stokes shift (αS fibrils [3]; [13]) | λem, maximum emission wavelength (αS fibrils [3]; [13]) | Stokes shift in the presence of PFFs (αS fibrils [3]) | solvatochromism / environmental sensitivity [4] | Fluorescence QY (αS fibrils [5]; [14]) | also measured
Cc1c(C)n2c(/C=C/c3ccc(N4CCOCC4)cc3)c(C)c(=O)n2c1=O [Compound 7k, (E)-2,3,6-trimethyl-5-(4-morpholinostyryl)-1H,7H-pyrazolo[1,2-a]pyrazole-1,7-dione] | 29562 M⁻¹ cm⁻¹ | 28890 M⁻¹ cm⁻¹ | 13 fold | 146 nm | 570 nm | 490-590 nm | 0.21% | 29.2% | 403 | 424 nm | 2 fold | 378 nm | 386 nm |  |  |  |  |  |  |  | 
Cc1c(C)n2c(/C=C/c3ccc(N)cc3)c(C)c(=O)n2c1=O [Compound 7j, (E)-3-(4-aminostyryl)-2,5,6-trimethyl-1H,7H-pyrazolo[1,2-a]pyrazole-1,7-dione] | 30834 M⁻¹ cm⁻¹ | 32091 M⁻¹ cm⁻¹ |  | 140 nm | 575 nm |  | 0.17% | 20.7% | 364 | 435 nm |  | 378 nm | 385 nm | 15385 M⁻¹ cm⁻¹ | significant turn-on of orange fluorescence | 140 nm | 575 nm | 140 nm | showed sensitivity to solvent polarity | 20.7% | emission peaks / emission maxima in the presence of PFFs (αS fibrils [3]; listed as 5j): 575 nm; increase in QY with αS fibrils (αS fibrils [5]): 122 fold; Relative Brightness (αS fibrils [5]; [15]): 364; increase in brightness in the presence of PFFs (αS fibrils [5]): 364 fold; λex, maximum excitation wavelength (αS fibrils [6]): 435 nm; Absorbance Wavelength ([8]; Table S14): 385 nm; λabs, maximum absorption wavelength [8]: 372 nm
Cc1c(C)n2c(/C=C/C=C/c3ccc(N(C)C)cc3)c(C)c(=O)n2c1=O [Compound 7m, 3-((1E,3E)-4-(4-(dimethylamino)phenyl)buta-1,3-dien-1-yl)-2,5,6-trimethyl-1H,7H-pyrazolo[1,2-a]pyrazole-1,7-dione] | 36689 M⁻¹ cm⁻¹ | 28639 M⁻¹ cm⁻¹ | 15 fold | 136 nm | 620 nm |  | 0.20% | 27.9% | 383 | 484 nm | 9 fold | 410 nm | 436 nm |  |  |  |  |  | high levels of solvatochromism |  | concentration-dependent shift in the emission maximum with αS fibrils (αS fibrils [3]): binding at multiple sites; λabs [8]: 436 nm; Absorbance Wavelength ([8]; Table 11): 418 nm
Cc1c(C)n2c(/C=C/c3ccc(N(C)C)cc3)c(C)c(=O)n2c1=O [Compound 7l, (E)-3-(4-(dimethylamino)styryl)-2,5,6-trimethyl-1H,7H-pyrazolo[1,2-a]pyrazole-1,7-dione] | 30420 M⁻¹ cm⁻¹ | 24742 M⁻¹ cm⁻¹ | 5 fold | 117 nm | 580 nm | 490-590 nm | 0.15% | 32.7% | 476 | 463 nm | 2 fold | 402 nm | 418 nm | 20071 M⁻¹ cm⁻¹ | significant turn-on of orange fluorescence | 117 nm | 580 nm | 117 nm | high level of solvatochromism | 32.7% | fluorescence turn-on with αS relative to Aβ1-42 [2]: 5.2 fold; emission maximum bound to αS (αS fibrils [3]): 584 nm; emission peaks / emission maxima in the presence of PFFs (αS fibrils [3]): 580 nm; increase in QY with αS fibrils (αS fibrils [5]): 218 fold; Relative Brightness (αS fibrils [5]; [15]): 476; increase in brightness in the presence of PFFs (αS fibrils [5]): 476 fold; λex, maximum excitation wavelength (αS fibrils [6]): 463 nm; fluorescence turn-on with αS relative to tau [7]: 2.8 fold; λabs [8]: 418 nm; Absorbance Wavelength ([8]; Table S14): 418 nm; λabs, maximum absorption wavelength [8]: 393 nm
